Source: PubChem BioAssay AID1117285 (Broad Institute, 2014)
Results filed as inconclusive are left out. Active and inactive are the calls of the source.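 How the source made its calls: active means called active in every replicate test, with a falling signal and AC50 within twice the top valid dose; inconclusive means replicate tests disagree in their calls; inactive means inactive in every replicate test, including a rising signal.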

target: Leucyl-cystinyl aminopeptidase (Mus musculus) (UniProt Q8C129); assay: inhibition of mouse IRAP Leu-AMC hydrolysis – biochemical, dry powder samples, set 2, selectivity assay for ERAP1 modulator project, dose response (AID 1117285); settings: purified IRAP, Leu-AMC hydrolysis fluorescence, 1 h
Sequence (Q8C129 whole entry, looked up): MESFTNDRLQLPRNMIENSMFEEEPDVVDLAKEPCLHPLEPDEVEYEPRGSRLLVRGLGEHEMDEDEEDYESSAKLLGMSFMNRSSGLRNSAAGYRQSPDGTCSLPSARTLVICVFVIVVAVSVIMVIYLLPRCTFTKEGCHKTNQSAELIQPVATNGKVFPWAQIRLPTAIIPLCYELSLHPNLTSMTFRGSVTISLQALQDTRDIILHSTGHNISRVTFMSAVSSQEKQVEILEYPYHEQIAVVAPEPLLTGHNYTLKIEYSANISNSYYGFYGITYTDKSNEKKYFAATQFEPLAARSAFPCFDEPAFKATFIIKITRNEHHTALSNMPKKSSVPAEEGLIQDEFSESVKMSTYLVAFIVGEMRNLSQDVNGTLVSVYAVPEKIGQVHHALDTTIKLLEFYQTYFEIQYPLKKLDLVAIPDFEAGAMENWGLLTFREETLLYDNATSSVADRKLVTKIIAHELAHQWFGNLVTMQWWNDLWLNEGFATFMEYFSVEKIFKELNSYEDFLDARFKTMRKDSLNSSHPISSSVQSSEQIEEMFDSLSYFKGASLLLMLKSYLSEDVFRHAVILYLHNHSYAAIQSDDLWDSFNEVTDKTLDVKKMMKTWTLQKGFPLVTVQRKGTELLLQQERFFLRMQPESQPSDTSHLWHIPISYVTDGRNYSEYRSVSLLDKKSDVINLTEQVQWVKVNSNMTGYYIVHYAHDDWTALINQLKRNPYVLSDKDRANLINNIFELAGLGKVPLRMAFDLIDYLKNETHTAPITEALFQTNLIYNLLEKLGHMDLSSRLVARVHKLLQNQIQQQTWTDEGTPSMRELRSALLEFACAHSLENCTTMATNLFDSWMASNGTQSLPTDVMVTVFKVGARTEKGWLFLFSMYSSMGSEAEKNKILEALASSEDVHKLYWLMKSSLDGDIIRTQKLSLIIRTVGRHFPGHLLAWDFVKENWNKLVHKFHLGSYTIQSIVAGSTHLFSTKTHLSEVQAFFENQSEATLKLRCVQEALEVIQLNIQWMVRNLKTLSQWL

| SMILES | AC50 |
| --- | --- |
| CC(=O)N1CCN(C(=O)[C@@H]2CCN2C(=O)Nc2ccc(C)cc2)CC1 | > 100 µM (inactive) |
| COC(=O)[C@H](CCCCN)NC(=O)c1ccc(N)c(NC(=O)[C@@H](N)CCc2ccccc2)c1 | > 100 µM (inactive) |

same assay, conditions: purified IRAP, Leu-AMC hydrolysis fluorescence, 1 h; at 0.1 µM; lower = more inhibition

| SMILES | max activity % (lower = more inhibition) |
| --- | --- |
| CC(=O)N1CCN(C(=O)C2(NC(=O)Nc3ccc(C(F)(F)F)cc3)CCCC2)CC1 | inactive |
| CC(=O)N1CCN(C(=O)C2(NC(=O)NC(C)(C)C)CCCCC2)CC1 | inactive |
| CC(=O)N1CCN(C(=O)CNC(=O)Nc2ccc(C)cc2)CC1 | inactive |
| Cc1ccc(NC(=O)NC2(C(=O)N3CCOCC3)CCCCC2)cc1 | inactive |
| COc1ccc(C(=O)Nc2cc(C(F)(F)F)ccc2N2CCOCC2)cc1S(=O)(=O)O | inactive |
| CC(=O)N1CCN(C(=O)C2(NC(=O)Nc3ccc(C)cc3)CCCCC2)CC1 | inactive |
| CC(=O)N1CCN(C(=O)C2(NC(=O)Nc3ccc(Cl)cc3)CCCCC2)CC1 | inactive |

same assay, conditions: purified IRAP, Leu-AMC hydrolysis fluorescence, 1 h; at 0.195 µM; lower = more inhibition

| SMILES | max activity % (lower = more inhibition) |
| --- | --- |
| O=S(=O)(Nc1cc(C(F)(F)F)ccc1N1CCCCC1)c1ccc(F)cc1 | inactive |
| CC(=O)N1CCN(C(=O)C2CCCN2C(=O)Nc2ccc(C)cc2)CC1 (stereo not given) | inactive |
| CC(=O)N1CCN(C(=O)C2(NC(=O)Nc3cccc(F)c3)CCCCC2)CC1 | inactive |
| NC(=NCCc1c[nH]c2ccccc12)NS(=O)(=O)c1cc(F)ccc1F | inactive |
| COc1ccc(C(=O)Nc2cc(C(F)(F)F)ccc2N2CCCC2)cc1S(=O)(=O)O | inactive |
| O=[N+]([O-])c1cccc(S(=O)(=O)Nc2cc(C(F)(F)F)ccc2N2CCCCC2)c1 | inactive |
| COc1ccc(S(=O)(=O)Nc2cc(C(F)(F)F)ccc2N2CCCCC2)cc1 | inactive |
| Cc1ccccc1S(=O)(=O)Nc1cc(C(F)(F)F)ccc1N1CCCCC1 | inactive |
| O=S(=O)(Nc1cc(C(F)(F)F)ccc1N1CCCCC1)c1ccccc1 | inactive |
| CC(=O)N1CCN(C(=O)C2(NC(=O)Nc3ccccc3)CCCC2)CC1 | inactive |
| CC(=O)N1CCN(C(=O)C2(NC(=O)Nc3ccccc3C(F)(F)F)CCCCC2)CC1 | inactive |
| CC(=O)N1CCN(C(=O)C2(NC(=O)Nc3ccc(C(F)(F)F)cc3)CCCCC2)CC1 | inactive |
| CC(=O)N1CCN(C(=O)C2(NC(=O)Nc3ccc(C(C)C)cc3)CCCC2)CC1 | inactive |

same assay, conditions: purified IRAP, Leu-AMC hydrolysis fluorescence, 1 h; at 0.38 µM; lower = more inhibition

| SMILES | max activity % (lower = more inhibition) |
| --- | --- |
| O=S(=O)(Nc1cc(C(F)(F)F)ccc1N1CCCCC1)c1cc(Cl)cc(Cl)c1 | inactive |
| CC(=O)N1CCN(C(=O)C2(NC(=O)Nc3ccc(C(C)C)cc3)CCCCC2)CC1 | inactive |
| CC(=O)N1CCN(C(=O)C2(NC(=O)Nc3cccc(C(F)(F)F)c3)CCCCC2)CC1 | inactive |
| Cc1ccc(NC(=O)NC2(C(=O)N3CCN(c4ccccc4)CC3)CCCCC2)cc1 | inactive |

same assay, conditions: purified IRAP, Leu-AMC hydrolysis fluorescence, 1 h; at 0.8 µM; lower = more inhibition

| SMILES | max activity % (lower = more inhibition) |
| --- | --- |
| O=[N+]([O-])c1ccc(S(=O)(=O)Nc2cc(C(F)(F)F)ccc2N2CCCCC2)c([N+](=O)[O-])c1 | inactive |
| O=S(=O)(Nc1cc(C(F)(F)F)ccc1N1CCCCC1)c1ccc(Cl)cc1 | inactive |
| CC(=O)N1CCN(C(=O)C2(NC(=O)Nc3ccccc3F)CCCCC2)CC1 | inactive |
| Cn1cnc(S(=O)(=O)Nc2cc(C(F)(F)F)ccc2N2CCCCC2)c1 | inactive |
| N#Cc1ccc(S(=O)(=O)Nc2cc(C(F)(F)F)ccc2N2CCCCC2)cc1 | inactive |

same assay, conditions: purified IRAP, Leu-AMC hydrolysis fluorescence, 1 h; at 3 µM; lower = more inhibition

| SMILES | max activity % (lower = more inhibition) |
| --- | --- |
| O=S(=O)(Nc1cc(C(F)(F)F)ccc1N1CCCCC1)c1ccc(C(F)(F)F)cc1 | inactive |
| O=S(=O)(Nc1cc(C(F)(F)F)ccc1N1CCCCC1)c1ccc(-c2ccccc2)cc1 | inactive |
| O=S(=O)(Nc1cc(C(F)(F)F)ccc1N1CCCCC1)c1ccc(Br)cc1 | inactive |
| CC(=O)N1CCN(C(=O)C2(NC(=O)Nc3ccc(F)cc3)CCCC2)CC1 | inactive |

same assay, conditions: purified IRAP, Leu-AMC hydrolysis fluorescence, 1 h; at 12 µM; lower = more inhibition

| SMILES | max activity % (lower = more inhibition) |
| --- | --- |
| COc1cccc(NC(=O)NC2(C(=O)N3CCN(C(C)=O)CC3)CCCCC2)c1 | inactive |
| COc1ccc(NC(=O)NC2(C(=O)N3CCN(C(C)=O)CC3)CCCCC2)cc1 | inactive |

same assay, conditions: purified IRAP, Leu-AMC hydrolysis fluorescence, 1 h; at 50 µM; lower = more inhibition

| SMILES | max activity % (lower = more inhibition) |
| --- | --- |
| COc1ccc(C(=O)Nc2cccc(C(F)(F)F)c2)cc1S(=O)(=O)O | inactive |
| COc1ccc(C(=O)Nc2cc(F)ccc2N2CCCCC2)cc1S(=O)(=O)O | inactive |
| CC(=O)N1CCN(C(=O)C2(NC(=O)Nc3ccccc3)CCCCC2)CC1 | inactive |
| CC(=O)N1CCN(C(=O)C2(NC(=O)NCCc3ccccc3)CCCCC2)CC1 | inactive |
| CC(=O)N1CCN(C(=O)C2(NC(=O)Nc3ccccc3F)CCCCC2)CC1 | inactive |
| CC(=O)N1CCN(C(=O)C2(NC(=O)Nc3ccc(F)cc3)CCCCC2)CC1 | inactive |
| COc1ccc(C(=O)Nc2cc(C(F)(F)F)ccc2N2CCCCC2)cc1S(=O)(=O)O | inactive |
| COc1ccc(C(=O)Nc2cc(C)ccc2N2CCCCC2)cc1S(=O)(=O)O | inactive |
| O=C(Nc1cc(C(F)(F)F)ccc1N1CCCCC1)c1ccc(S(=O)(=O)O)cc1 | inactive |
| CC(=O)N1CCN(C(=O)C(C)(C)NC(=O)Nc2ccc(C)cc2)CC1 | inactive |
| COc1ccc(C(=O)Nc2ccccc2N2CCCCC2)cc1S(=O)(=O)O | inactive |

same assay, conditions: purified IRAP, Leu-AMC hydrolysis fluorescence, 1 h; lower = more inhibition

| SMILES | max activity % (lower = more inhibition) |
| --- | --- |
| COc1ccc(C(=O)O)cc1S(=O)(=O)Nc1cc(F)ccc1N1CCCCC1 | inactive |
| COc1ccc(C(=O)O)cc1S(=O)(=O)Nc1ccccc1N1CCCCC1 | inactive |
| COc1ccc(C(=O)O)cc1S(=O)(=O)Nc1cc(C(F)(F)F)ccc1N1CCCCC1 | inactive |
| COc1ccc(C(=O)O)cc1S(=O)(=O)Nc1cc(C(F)(F)F)ccc1N(C)C | inactive |
| COc1ccc(C(=O)O)cc1S(=O)(=O)Nc1cc(C(F)(F)F)ccc1N1CCOCC1 | inactive |
| COc1ccc(C(=O)O)cc1S(=O)(=O)Nc1cc(C)ccc1N1CCCCC1 | inactive |
| COC(=O)c1ccc(OC)c(S(=O)(=O)Nc2cc(C(F)(F)F)ccc2N2CCCCC2)c1 | inactive |
